System: TRAMP-C2 and/or Panc02 pancreatic ductal adenocarcinoma cells
Assay: Antitumor activity of TH-302 with immune modulating agents in mice xenografts
Type: in vivo
Conditions: single agent; TH-302 50 mg/kg i.p. every day for 5 days; tumor growth observed by IVIS
Experimental: 5×10^5 to 1×10^6 TRAMP-C2, C57BL/6J, B6, FVB F1 cells and/or Panc02 pancreatic ductal adenocarcinoma cells expressing luciferase are […] implanted s.c. on the right flank of albino or ODD-Luc reporter mice. The mice are treated with TH-302 alone (50 mg/kg i.p., every day for 5 days), either 1 week, 3 weeks or 16 weeks after TRAMP cell implantation, with a week of rest in between. Some mice are also treated with CTLA-4 blocking antibody 9H10, PD-1 blocking antibody RMP1-14 and/or agonistic […] antibody given i.p. on days 1, 4, 7 and days 13, 16 and 19 for one to three cycles. Mice are monitored for survival (log-rank, mantel-cox test) and tumor growth was observed by IVIS once a week up to 140 days after tumor implantation. The mice were then sacrificed and their organs were weighed and tumors were isolated, fixed in paraformaldehyde or acetone, embedded/mounted in OCT, frozen, sectioned, stained for hypoxia with anti-piminidazole FITC, GR-1 V450, CD11b Alexa 546, and/or F4/80 Alexa 647.

## Cn1c(COP(=O)(NCCBr)NCCBr)cnc1[N+](=O)[O-] [TH-302]
  tumor growth delay: produced a growth delay

Source: US20210369746A1, “ADMINISTRATION OF HYPOXIA ACTIVATED PRODRUGS IN COMBINATION WITH IMMUNE MODULATORY AGENTS FOR TREATING CANCER” (MOLECULAR TEMPLATES, INC., priority 2016, published 2021)
